The text below walks through data of PubChem BioAssay AID330 (DTP/NCI, 2004).

Values joined by “and” are separate entries in the source; they are usually repeats but may differ in a detail not shown here. Equal entries are not always repeated. Inconclusive results and toxic doses are left out.

The subject of this test is P388 leukemia ip, CD2F1 mice, survival T/C. The test can be described thus: NCI In Vivo Anticancer Drug Screen. Data for tumor model P388 Leukemia (intraperitoneal) in CD2F1 (CDF1) mice. Conditions: endpoint: median survival time, higher = longer survival. In short, it runs like this: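 Mice carrying the transplanted tumor received test compound or vehicle. Survival was recorded in each group, and the value is the treated-group measurement divided by that of the vehicle-treated control group.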

[1] abbreviates: dose: 100.0 mg/kg/injection, schedule: Q01DX001 (ip), vehicle: saline.
Setting [2] is: dose: 25.0 mg/kg/injection, schedule: Q01DX009 (ip), vehicle: Klucel (hydroxypropylcellulose) (HPC).
Where [3] appears, read: dose: 50.0 mg/kg/injection, schedule: Q01DX009 (ip), vehicle: Klucel (hydroxypropylcellulose) (HPC).
Setting [4] is: dose: 100.0 mg/kg/injection, schedule: Q01DX009 (ip), vehicle: saline.
[5] abbreviates: dose: 200.0 mg/kg/injection, schedule: Q01DX009 (ip), vehicle: saline.

As to `O=c1[nH]c(=O)n(C2CC(O)C(CO)O2)cc1F` (centres undefined), the T/C runs as follows: (dose: 10.0 mg/kg/injection, schedule: Q01DX010 (ip), vehicle: saline) 163 % of control; (dose: 12.5 mg/kg/injection, schedule: Q04DX002 (ip), vehicle: water) 108 % of control; (dose: 20.0 mg/kg/injection, schedule: Q01DX009 (ip), vehicle: saline) 155 % of control; (dose: 20.0 mg/kg/injection, schedule: Q01DX010 (ip), vehicle: saline) 181 % of control; (dose: 38.0 mg/kg/injection, schedule: Q01DX009 (ip), vehicle: saline) 160 % of control; (dose: 40.0 mg/kg/injection, schedule: Q01DX009 (ip), vehicle: saline) 117 % of control. The T/C was 222 % of control (dose: 40.0 mg/kg/injection, schedule: Q01DX010 (ip), vehicle: saline); 159 % of control and 167 % of control (dose: 49.0 mg/kg/injection, schedule: Q01DX009 (ip), vehicle: saline); 114 % of control (dose: 50.0 mg/kg/injection, schedule: Q01DX005 (ip), vehicle: saline); 123 % of control (dose: 56.0 mg/kg/injection, schedule: Q01DX009 (ip), vehicle: saline); 185 % of control (dose: 75.0 mg/kg/injection, schedule: Q01DX009 (ip), vehicle: saline); 92 % of control (dose: 80.0 mg/kg/injection, schedule: Q01DX009 (ip), vehicle: saline). In addition, the T/C was 110 % of control under setting [1]; 98 % of control (dose: 100.0 mg/kg/injection, schedule: Q01DX005 (ip), vehicle: saline); 103 % of control (dose: 110.0 mg/kg/injection, schedule: Q01DX009 (ip), vehicle: saline); 81 % of control (dose: 120.0 mg/kg/injection, schedule: Q01DX009 (ip), vehicle: saline); 83 % of control (dose: 180.0 mg/kg/injection, schedule: Q01DX009 (ip), vehicle: saline); 111 % of control (dose: 200.0 mg/kg/injection, schedule: Q01DX001 (ip), vehicle: saline). In addition, the T/C (dose: 200.0 mg/kg/injection, schedule: Q01DX005 (ip), vehicle: saline) was 95 % of control; the T/C (dose: 240.0 mg/kg/injection, schedule: Q04DX002 (ip), vehicle: saline) is 157 % of control; the T/C (dose: 350.0 mg/kg/injection, schedule: Q04DX003 (ip), vehicle: saline) is 168 % of control; the T/C (dose: 400.0 mg/kg/injection, schedule: Q04DX002 (ip), vehicle: saline) was 164 % of control; the T/C (dose: 400.0 mg/kg/injection, schedule: Q04DX003 (ip), vehicle: saline) was 100 % of control.
In the case of `CCS`, the T/C (dose: 25.0 mg/kg/injection, schedule: Q01DX009 (ip), vehicle: saline with Tween-80) was 86 % of control; the T/C (dose: 50.0 mg/kg/injection, schedule: Q01DX009 (ip), vehicle: saline with Tween-80) is 91 % of control; the T/C (dose: 100.0 mg/kg/injection, schedule: Q01DX009 (ip), vehicle: saline with Tween-80) was 92 % of control; the T/C (dose: 200.0 mg/kg/injection, schedule: Q01DX009 (ip), vehicle: saline with Tween-80) was 88 % of control.
On to `O=c1c2ccccc2nnn1OCc1ccccc1`, for which the T/C (dose: 12.5 mg/kg/injection, schedule: Q01DX009 (ip), vehicle: distilled water + Tween-80) was 100 % of control; the T/C (dose: 25.0 mg/kg/injection, schedule: Q01DX009 (ip), vehicle: distilled water + Tween-80) is 103 % of control; the T/C (dose: 50.0 mg/kg/injection, schedule: Q01DX009 (ip), vehicle: distilled water + Tween-80) is 97 % of control; the T/C (dose: 100.0 mg/kg/injection, schedule: Q01DX009 (ip), vehicle: distilled water + Tween-80) is 101 % of control; the T/C (dose: 200.0 mg/kg/injection, schedule: Q01DX009 (ip), vehicle: distilled water + Tween-80) is 103 % of control.
With `NP(=O)(OCCC(=O)c1ccccc1)N(CCCl)CCCl` (centres undefined), the T/C was 163 % of control (dose: 25.0 mg/kg/injection, schedule: Q04DX002 (ip), vehicle: saline with Tween-80); 223 % of control (dose: 50.0 mg/kg/injection, schedule: Q04DX002 (ip), vehicle: saline with Tween-80); 221 % of control and 92 % of control (dose: 100.0 mg/kg/injection, schedule: Q04DX002 (ip), vehicle: saline with Tween-80); 89 % of control (dose: 200.0 mg/kg/injection, schedule: Q04DX002 (ip), vehicle: saline with Tween-80).
As to `CN(Cc1cnc2nc(N)nc(N)c2c1)c1ccc(C(=O)NC(CCC(=O)O)C(=O)O)cc1` (centres undefined), the T/C was 123 % of control (dose: 0.25 mg/kg/injection, schedule: Q01DX005 (ip), vehicle: other); 154 % of control (dose: 1.0 mg/kg/injection, schedule: Q01DX005 (ip), vehicle: other); 150 % of control and 170 % of control (dose: 2.0 mg/kg/injection, schedule: Q01DX005 (ip), vehicle: other); 166 % of control and 186 % of control and 197 % of control (dose: 4.0 mg/kg/injection, schedule: Q01DX005 (ip), vehicle: other); 197 % of control (dose: 6.0 mg/kg/injection, schedule: Q01DX005 (ip), vehicle: other).
With `C=C1C(=O)OC2/C=C(/C)C3(O)OC(C)(CC(OC(=O)C(C)C)C12)CC3OC(C)=O` (centres undefined), the T/C was 110 % of control under setting [2] and 116 % of control under setting [3].
With `O=C(Nc1ccc(Cc2ccc(NC(=O)Nc3nccs3)cc2)cc1)Nc1nccs1`, the T/C runs as follows: (dose: 12.5 mg/kg/injection, schedule: Q01DX009 (ip), vehicle: Klucel (hydroxypropylcellulose) (HPC)) 100 % of control; under setting [2], 100 % of control and 95 % of control; under setting [3], 98 % of control and 91 % of control.
For the molecule `NC(N)=N/N=C1\C/C(=N\N=C(N)N)c2cc3ccccc3cc21`, the T/C reads like this: (dose: 12.5 mg/kg/injection, schedule: Q01DX001 (ip), vehicle: saline with Tween-80) 105 % of control; (dose: 25.0 mg/kg/injection, schedule: Q01DX001 (ip), vehicle: saline with Tween-80) 102 % of control; (dose: 25.0 mg/kg/injection, schedule: Q01DX001 (ip), vehicle: saline) 103 % of control; (dose: 50.0 mg/kg/injection, schedule: Q01DX001 (ip), vehicle: saline with Tween-80) 91 % of control; (dose: 50.0 mg/kg/injection, schedule: Q01DX001 (ip), vehicle: saline) 98 % of control; (dose: 100.0 mg/kg/injection, schedule: Q01DX001 (ip), vehicle: saline with Tween-80) 93 % of control. Besides, the T/C under setting [1] was 99 % of control.
Take `CN1C(c2ccccc2)CC(=NOCc2ccccc2)CC1c1ccccc1` (centres undefined): the T/C is, setting by setting: (dose: 50.0 mg/kg/injection, schedule: Q01DX005 (ip), vehicle: saline with Tween-80) 98 % of control; (dose: 100.0 mg/kg/injection, schedule: Q01DX005 (ip), vehicle: saline with Tween-80) 96 % of control; (dose: 200.0 mg/kg/injection, schedule: Q01DX005 (ip), vehicle: saline with Tween-80) 89 % of control.
For the molecule `O=C(OC(c1ccccc1)c1ccccc1)c1ccccc1`, the T/C by setting is: (dose: 50.0 mg/kg/injection, schedule: Q01DX009 (ip), vehicle: saline) 99 % of control; under setting [4], 108 % of control; under setting [5], 102 % of control.
As for `NC1C[S][Sn][O]C1=O` (centres undefined), the T/C was 111 % of control (dose: 100.0 mg/kg/injection, schedule: Q04DX003 (ip), vehicle: saline with Tween-80) and 109 % of control (dose: 200.0 mg/kg/injection, schedule: Q04DX003 (ip), vehicle: saline with Tween-80).
In the case of `COCCOCCOCCOCCOCCOCCOCCOC(=O)Nc1ccc(C)c(NC(=O)OCCOCCOCCOCCOCCOCCOCCOC)c1`, the T/C was 109 % of control under setting [4]; 109 % of control under setting [5]; 95 % of control (dose: 400.0 mg/kg/injection, schedule: Q01DX009 (ip), vehicle: saline).
On to `CC(=O)O[C@H]1CC[C@]2(C)C3CC[C@]4(C)C([C@H](C)CCCC(C)C)CCC4[C@]3(C#N)n3c(=O)n(-c4ccccc4)c(=O)n3[C@]2(C#N)C1` (some centres undefined), for which the T/C is 96 % of control (dose: 60.0 mg/kg/injection, schedule: Q01DX005 (ip), vehicle: saline with Tween-80); 93 % of control (dose: 120.0 mg/kg/injection, schedule: Q01DX005 (ip), vehicle: saline with Tween-80); 91 % of control (dose: 240.0 mg/kg/injection, schedule: Q01DX005 (ip), vehicle: saline with Tween-80).
With `O=c1cccccc1[O][Sn]([O]c1cccccc1=O)([c]1ccccc1)[c]1ccccc1`, the T/C (dose: 50.0 mg/kg/injection, schedule: Q01DX001 (ip), vehicle: Klucel (hydroxypropylcellulose) (HPC)) is 104 % of control and the T/C (dose: 100.0 mg/kg/injection, schedule: Q01DX001 (ip), vehicle: Klucel (hydroxypropylcellulose) (HPC)) is 116 % of control.
